Test results taken from US20260327195A1, “2-STYRYLBENZOTHIAZOLE DERIVATIVES AS ALPHA-SYNUCLEIN BINDING COMPOUNDS” (Eberhard Karls Universität Tübingen Medizinische Fakultät, priority 2023, published 2026).

How the values were obtained:
[1] = In vivo dynamic PET/MR imaging, pharmacokinetic profile; design: species or system mouse (wild-type female C57BL/6J); conditions: i.v.
Description: The animal experiments were performed in compliance to the European directives on the protection and use of laboratory animals (Council Directive 2010/63/UE) and the German animal welfare act with approval from the local authorities (Regierungspräsidium Tuebingen, R3/19G). Three healthy wild-type female C57BL/6J mice (20.3±0.9 g; 9 weeks old) purchased from Charles River Laboratories (Sulzbach, Germany) were maintained in a vivarium on a 12:12 hour light dark cycle and were kept at a temperature of 22° C. with 40-60% humidity and free access to a standard diet and tap water.
The mice (n=3) were anaesthetized with 1.5% isoflurane evaporated in 100% oxygen at a flow rate of 0.8 L/min. Body temperature of 37° C. was maintained using a feedback temperature control unit. PET imaging studies were performed on Inveon dedicated microPET system (Inveon D-PET, Siemens, Knoxville, TN, USA). Five seconds after the start of PET acquisition, mice were injected intravenously with 9.9±0.6 MBq of [^18F]MFSB (Am=46.2±2.5 GBq/μmol at time of injection). The one-hour dynamic acquisitions were divided into 39 time frames (12×5 s, 6×10 s, 6×30 s, 5×60 s and 10×300 s). A 13-minute transmission measurement with a cobalt-57 point source was performed for attenuation correction. Subsequently, an anatomical magnetic resonance (MR) scan with a 7 Tesla MR scanner (ClinScan, Bruker BioSpin MRI GmbH, Ettlingen, Germany) using a rat whole-body volume coil and the Paravision software (v6.0.1, Bruker, Ettlingen, Germany) using a T2-weighted Turbo-RARE MRI sequence.
The PET image was reconstructed via the OSEM3D/SP-MAP reconstruction algorithm and coregistered to the whole-body MRI scan. Volumes of interest (VOIs) were hand-drawn for the relevant organs based on the MR anatomy in PMOD (PMOD Technologies, Faellanden, Switzerland, Version 4.2) and VOIs at different regions in the mouse brain were extracted using the atlas provided by PMOD to calculate the respective time-activity curves (TACs). Standardized uptake values (SUVs) were calculated as a ratio of the detected activity with injected activity and weight (SUV=(TAC (kBq/cc)/inj. activity (kBq))*weight (g)).

[2] = biological target: αSYN pathology in PD human brain slices (Homo sapiens, UniProt P37840); experiment: In vitro autoradiography on PD human brain slices (frontal cortex); type: binding; conditions: 10 nM tracer; NSB with 10 μM non-radioactive compound
Description: (§1) Post-mortem human brain slices (10 μm thickness) were obtained from and the subject cases were analyzed by the Neurobiobank München (NBM, Munich, Germany), where tissues were collected on the basis of written informed consent according to the guidelines of the ethics committee of the Ludwig-Maximilians-University Munich, Germany (#345-13). The use of brain tissue samples in this study was approved by the ethics committee of the Faculty of Medicine at the University of Tuebingen (Ethics approval number: 813/2018BO2). Table 1 summarizes the information of the subjects from which samples were obtained and used in the experiment.
For autoradiography, brain slices were thawed for one hour before pre-incubation in BSA buffer for 25 minutes at room temperature. To determine total binding (TB), brain slices were incubated with the tracer (10 nM [^18F]PFSB, 10 nM [^18F]MFSB). […]
Quantitative data analysis was performed by drawing four regions of interest (ROIs) in relevant areas of the slice and one ROI next to it for background subtraction (ImageJ 1.8.0_172, National Institute of Health, Bethesda, Maryland, USA) (Schneider, C. A. et al., NIH Image to ImageJ: 25 years of image analysis; Nat Methods 2012, 9 (7), 671-5). […] The SB disease/SB control ratio was calculated by dividing by the SB in diseased tissues with the respective SB in control tissues.

[3] = biological target: T1, Aβ plaques in AD human brain slices (Homo sapiens, UniProt P05067); experiment: In vitro autoradiography on AD human brain slices (frontal cortex); type: binding
T1 construct: mainly Abeta40/42 cut from APP) in post-mortem AD frontal cortex slices
Description: as §1
(§2) For autoradiography, brain slices were thawed for one hour before pre-incubation in BSA buffer for 25 minutes at room temperature. To determine total binding (TB), brain slices were incubated with the tracer (10 nM [^18F]PFSB, 10 nM [^18F]MFSB). Incubation of consecutive slices with the correspondent non-radioactive compounds (10 μM PFSB, […]) was performed to determine non-specific binding (NSB). The non-radioactive compounds were prepared by dissolving in DMSO to 10 mM, which yielded DMSO concentration of ≤0.1% in the final solution. Incubation was carried out for one hour at room temperature with subsequent washing in cold BSA buffer (three times for ten minutes) followed by three dipping in cold deionized water. After drying under UV lamps, brain slices were exposed to a storage phosphor screen (Molecular Dynamics, Caesarea, Israel) for 18 hours, which was then scanned in a phosphor imager (STORM 840, Molecular dynamics, Sunnyvale, CA, USA).
(§3) Quantitative data analysis was performed by drawing four regions of interest (ROIs) in relevant areas of the slice and one ROI next to it for background subtraction (ImageJ 1.8.0_172, National Institute of Health, Bethesda, Maryland, USA) (Schneider, C. A. et al., NIH Image to ImageJ: 25 years of image analysis; Nat Methods 2012, 9 (7), 671-5). Specific binding (SB) is obtained by subtracting NSB from TB. The SB disease/SB control ratio was calculated by dividing by the SB in diseased tissues with the respective SB in control tissues.

[4] = biological target: αSYN pathology in MSA human brain slices (Homo sapiens, UniProt P37840); experiment: In vitro autoradiography on MSA human brain slices (cerebellum); type: binding
Description: as §1, §2, §3

αSYN = conditions: result in words; cited from earlier work
Aβ fibrils = conditions: result in words; cited from earlier work
[5] = 10 nM tracer, NSB with 10 μM non-radioactive compound

T1 sequence (P05067 672-713 limits assumed): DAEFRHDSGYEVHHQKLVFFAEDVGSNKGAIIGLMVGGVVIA

For `[18F]c1ccc2nc(/C=C/c3ccc(N4CCOCC4)cc3)sc2c1` [[^18F]MFSB], the “crossing of the BBB” value ([1]; 9.9±0.6 MBq, 60 min dynamic PET/MR) was “crossing of the BBB was successful”, the “clearance from lungs and liver” value ([1]; after first 2 min, result in words) was “fast to moderate clearance” and the “uptake in liver (SUV)” value ([1]; first 2 min) was “≈ 5 SUV”. The “uptake in lungs (SUV)” value ([1]; first 2 min) was “≈ 5 SUV”, the “clearance (brain), over 60 min” value ([1]; result in words) was “beginning of clearance was observed” and the kidney uptake ([1]; result in words) was “Significant kidney uptake”. For the same compound, the “renal excretion, start” value ([1]; result in words) was “renal excretion starting in the first few minutes”, the “SB disease/SB control, PD/frontal cortex ctrl” value [2] was 1.18 and the “SB disease/SB control, AD/frontal cortex ctrl” value [3, 5] was 1.03. The “binding in AD brain regions with Aβ plaques / AD/frontal cortex SB ratio in words” value ([3]; result in words, FIG. 12) was “remained favorable”, the “SB disease/SB control, MSA2/cerebellum ctrl” value [4, 5] was 1.27 and the “selectivity towards αSYN over Aβ” value ([4]; autoradiography, result in words, FIG. 12) was “validated the selective binding to αSYN”. The “non-specific binding on MSA sections” value ([4]; result in words, hampered quantification of the disease/control SB ratio) was “with [^18F]MFSB was hampered by high NSB”.
For `Cc1ccc2c(c1)sc(-c1ccc(N(C)C)cc1)[n+]2C` [thioflavin T], the “binding to αSYN” value (αSYN) is listed as “does not bind to αSYN” and the “binding to Aβ fibrils” value (Aβ fibrils) is listed as “known to bind to Aβ fibrils”.
